Reference: US12344603B2 (Genentech, Inc., priority 2020, dated 2025)
Counter-ions that a name gives are not always drawn.

Molecular target: IRE1α (Homo sapiens (Human), UniProt O75460, D688N)
Experiment: IRE1α TR-FRET competition binding assay (IRE1α HTRF)
Settings: TR-FRET competition binding to kinase domain of IRE1α
Summary of the method: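 Competition of compounds against an Alexa fluor 647 ATP-site probe (2 nM final) for the His-tagged kinase domain (0.25 nM final), detected via 2 nM Eu anti-His antibody by TR-FRET, 665 and 615 nm emission. Protein–antibody premix 1 h, 4° C; reaction 1 h, room temperature, pH 7.5 HEPES buffer.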

Sequence of IRE1α (O75460 547-977 D688N): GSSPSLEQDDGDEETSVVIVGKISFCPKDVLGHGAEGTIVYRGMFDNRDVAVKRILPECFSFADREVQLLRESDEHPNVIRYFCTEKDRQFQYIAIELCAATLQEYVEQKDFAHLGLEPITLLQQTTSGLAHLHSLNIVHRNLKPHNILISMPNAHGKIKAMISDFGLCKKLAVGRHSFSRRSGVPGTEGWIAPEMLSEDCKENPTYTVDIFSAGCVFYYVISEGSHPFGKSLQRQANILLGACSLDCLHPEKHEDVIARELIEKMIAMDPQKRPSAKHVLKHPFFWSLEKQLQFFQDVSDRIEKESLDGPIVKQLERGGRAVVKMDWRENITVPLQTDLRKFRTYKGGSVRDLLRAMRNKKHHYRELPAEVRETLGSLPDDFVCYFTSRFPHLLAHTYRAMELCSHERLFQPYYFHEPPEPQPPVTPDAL

| IC50 [nM] | SMILES |
| --- | --- |
| 0.2 | CC(C)n1c(=O)c(-c2cc(F)c(NS(=O)(=O)CC(F)(F)CC3CC3)c(F)c2)nc2cnc(N[C@H]3CC[C@H](N(C)C)CC3)nc21 [Example 248, 3-Cyclopropyl-N-[4-[2-[[4-(dimethylamino)cyclohexyl]amino]-8-isopropyl-7-oxo-pteridin-6-yl]-2,6-difluoro-phenyl]-2,2-difluoro-propane-1-sulfonamide] |
| 8.3 | CCCS(=O)(=O)Nc1ccc(-c2cc3cnc(N[C@@H]4CNC[C@@H](F)C4)nc3n(CC)c2=O)c(F)c1F [Compound 13, N-(4-(8-Ethyl-2-(((3S,5S)-5-fluoropiperidin-3-yl)amino)-7-oxo-7,8-dihydropyrido[2,3-d]pyrimidin-6-yl)-2,3-difluorophenyl)propane-1-sulfonamide] |
| 5 | Cn1c(=O)c(-c2cccc3c(NS(=O)(=O)CCC(F)(F)F)c(F)ccc23)cc2cnc(N[C@H]3CCCNC3)nc21 [Compound 4, (S)-3,3,3-Trifluoro-N-(2-fluoro-5-(8-methyl-7-oxo-2-(piperidin-3-ylamino)-7,8-dihydropyrido[2,3-d]pyrimidin-6-yl)naphthalen-1-yl)propane-1-sulfonamide] |
| 0.18 | CC(C)n1c(=O)c(-c2ccc(NS(=O)(=O)CC3CC(F)(F)C3)c(F)c2)cc2cnc(N[C@H]3CC[C@H](N(C)CCF)CC3)nc21 [Compound 156, 1-(3,3-Difluorocyclobutyl)-N-(2-fluoro-4-(2-(((1r,4r)-4-((2-fluoroethyl)(methyl)amino)cyclohexyl)amino)-8-isopropyl-7-oxo-7,8-dihydropyrido[2,3-d]pyrimidin-6-yl)phenyl)methanesulfonamide] |
| 0.4 | CC(C)n1c(=O)c(-c2ccc(NS(=O)(=O)CCC(C)(F)F)nc2)nc2cnc(N[C@H]3CC[C@H](N(C)C)CC3)nc21 [Example 238, N-[5-[2-[[4-(Dimethylamino)cyclohexyl]amino]-8-isopropyl-7-oxo-pteridin-6-yl]-2-pyridyl]-3,3-difluoro-butane-1-sulfonamide] |
| 0.21 | CC[C@@H](C)n1c(=O)c(-c2ccc(NS(=O)(=O)CCC(F)(F)F)c(F)c2)cc2cnc(N[C@H]3CC[C@H](N(C)C)CC3)nc21 (single isomer, unassigned) [Compound 203] |
| 0.47 | CC(C)n1c(=O)c(-c2cc(F)c(NS(=O)(=O)CCC(F)(F)F)c(F)c2)nc2cnc(N[C@@H]3CNC[C@@H](F)C3)nc21 [Compound 46, N-(2,6-Difluoro-4-(2-(((3S,5S)-5-fluoropiperidin-3-yl)amino)-8-isopropyl-7-oxo-7,8-dihydropteridin-6-yl)phenyl)-3,3,3-trifluoropropane-1-sulfonamide] |
| 0.25 | CC(C)n1c(=O)c(-c2ccc(NS(=O)(=O)CCC(F)(F)F)c(F)c2)cc2cnc(N[C@H]3CC[C@H](N4CCCC4)CC3)nc21 [Compound 199, 3,3,3-Trifluoro-N-(2-fluoro-4-(8-isopropyl-7-oxo-2-(((1,4-trans)-4-(pyrrolidin-1-yl)cyclohexyl)amino)-7,8-dihydropyrido[2,3-d]pyrimidin-6-yl)phenyl)propane-1-sulfonamide] |
| 1.3 | CC(C)n1c(=O)c(-c2cnc(NS(=O)(=O)CCC(F)(F)F)nc2)cc2cnc(N[C@H]3CC[C@H](N(C)C)CC3)nc21 [Example 233, N-(5-(2-(((1r,4r)-4-(Dimethylamino)cyclohexyl)amino)-8-isopropyl-7-oxo-7,8-dihydropyrido[2,3-d]pyrimidin-6-yl)pyrimidin-2-yl)-3,3,3-trifluoropropane-1-sulfonamide] |
| 0.9 | CC(C)n1c(=O)c(-c2ccc(NS(=O)(=O)C3CCC3)c(F)c2)nc2cnc(N[C@H]3CC[C@H](N(C)C)CC3)nc21 [Example 276, N-[4-[2-[[4-(Dimethylamino)cyclohexyl]amino]-8-isopropyl-7-oxo-pteridin-6-yl]-2-fluoro-phenyl]cyclobutanesulfonamide] |
| 0.8 | CC(C)n1c(=O)c(-c2ccc(NS(=O)(=O)CCC(C)(F)F)c(F)c2)nc2cnc(N[C@@H]3CNC[C@H](CF)C3)nc21 [Compound 77, 3,3-Difluoro-N-[2-fluoro-4-[2-[[(3S,5R)-5-(fluoromethyl)-3-piperidyl]amino]-8-isopropyl-7-oxo-pteridin-6-yl]phenyl]butane-1-sulfonamide] |
| 0.11 | CC(C)n1c(=O)c(-c2cc(F)c(NS(=O)(=O)Cc3ccc(F)cc3)cc2F)cc2cnc(N[C@H]3CC[C@H](N(C)C)CC3)nc21 [Compound 127, N-(4-(2-(((1r,4r)-4-(Dimethylamino)cyclohexyl)amino)-8-isopropyl-7-oxo-7,8-dihydropyrido[2,3-d]pyrimidin-6-yl)-2,5-difluorophenyl)-1-(4-fluorophenyl)methanesulfonamide] |
| 1.7 | CC(C)n1c(=O)c(-c2ccc(NS(=O)(=O)CCC(F)(F)F)nc2)cc2cnc(N[C@@H]3CNC[C@@H](F)C3)nc21 [Example 216, 3,3,3-trifluoro-N-(5-(2-(((3S,5S)-5-fluoro-piperidin-3-yl)amino)-8-isopropyl-7-oxo-7,8-dihydropyrido[2,3-d]-pyrimidin-6-yl)pyridin-2-yl)propane-1-sulfon-amide] |
| 0.49 | CC(C)n1c(=O)c(-c2cc(F)c(NS(=O)(=O)CCC(F)(F)F)cc2F)nc2cnc(N[C@H]3CC[C@H](N(C)C)CC3)nc21 [Compound 189, N-(4-(2-(((1r,4r)-4-(dimethylamino)cyclohexyl)amino)-8-isopropyl-7-oxo-7,8-dihydropteridin-6-yl)-2,5-difluorophenyl)-3,3,3-trifluoropropane-1-sulfonamide] |
| 0.24 | CC(C)n1c(=O)c(-c2ccc(NS(=O)(=O)CCC(F)(F)F)c(F)c2)nc2cnc(N[C@H]3CC[C@H](N(C)CCF)CC3)nc21 [Compound 177, 3,3,3-Trifluoro-N-(2-fluoro-4-(2-(((1r,4r)-4-((2-fluoroethyl)(methyl)amino)cyclohexyl)amino)-8-isopropyl-7-oxo-7,8-dihydropteridin-6-yl)phenyl)propane-1-sulfonamide] |
| 0.2 | Cc1nc(NS(=O)(=O)c2ccccc2C#N)ccc1-c1nc2cnc(N[C@H]3CC[C@H](N(C)C)CC3)nc2n(C(C)C)c1=O [Example 255, N-[5-[2-[[4-(Dimethylamino)cyclohexyl]amino]-8-isopropyl-7-oxo-pteridin-6-yl]-6-methyl-2-pyridyl]-2-cyano-benzenesulfonamide] |
| 0.46 | CC(C)n1c(=O)c(-c2ccc(NS(=O)(=O)Cc3ccccc3F)cn2)cc2cnc(N[C@@H]3CNC[C@@H](F)C3)nc21 [Compound 95, 1-(2-Fluorophenyl)-N-(6-(2-(((3S,5S)-5-fluoropiperidin-3-yl)amino)-8-isopropyl-7-oxo-7,8-dihydropyrido[2,3-d]pyrimidin-6-yl)pyridin-3-yl)methanesulfonamide] |
| 2.1 | Cn1c(=O)c(-c2ccc(NS(=O)(=O)Cc3ccccc3)c(F)c2F)cc2cnc(N[C@@H]3CNC[C@@H](F)C3)nc21 [Compound 2, N-(2,3-Difluoro-4-(2-(((3S,5S)-5-fluoropiperidin-3-yl)amino)-8-methyl-7-oxo-7,8-dihydropyrido[2,3-d]pyrimidin-6-yl)phenyl)-1-phenylmethanesulfonamide] |
| 0.14 | CCN(C)[C@H]1CC[C@H](Nc2ncc3cc(-c4ccc(NS(=O)(=O)CCC(F)(F)F)c(F)c4)c(=O)n(C(C)C)c3n2)CC1 [Compound 205, N-(4-(2-(((1,4-trans)-4-(Ethyl(methyl)amino)cyclohexyl)amino)-8-isopropyl-7-oxo-7,8-dihydropyrido[2,3-d]pyrimidin-6-yl)-2-fluorophenyl)-3,3,3-trifluoropropane-1-sulfonamide] |
| 0.29 | CC(C)n1c(=O)c(-c2ccc(NS(=O)(=O)CCC(C)(F)F)c(F)c2)nc2cnc(N[C@H]3CC[C@H](N(C)C)CC3)nc21 [Compound 66, N-(4-(2-(((1r,4r)-4-(Dimethylamino)cyclohexyl)amino)-8-isopropyl-7-oxo-7,8-dihydropteridin-6-yl)-2-fluorophenyl)-3,3-difluorobutane-1-sulfonamide] |
| 0.3 | Cc1nc(NS(=O)(=O)c2ccccc2F)ccc1-c1nc2cnc(N[C@H]3CC[C@H](N(C)C)CC3)nc2n(C(C)C)c1=O [Example 253, N-[5-[2-[[4-(Dimethylamino)cyclohexyl]amino]-8-isopropyl-7-oxo-pteridin-6-yl]-6-methyl-2-pyridyl]-2-fluoro-benzenesulfonamide] |
| 0.09 | Cc1ccc(CS(=O)(=O)Nc2ccc(-c3nc4cnc(N[C@@H]5CNC[C@@H](F)C5)nc4n(C(C)C)c3=O)cc2F)c(C#N)c1 [Compound 166, 1-(2-Cyano-4-methylphenyl)-N-(2-fluoro-4-(2-(((3S,5S)-5-fluoropiperidin-3-yl)amino)-8-isopropyl-7-oxo-7,8-dihydropteridin-6-yl)phenyl)methanesulfonamide] |
| 0.42 | O=c1c(-c2cc(F)c(NS(=O)(=O)Cc3ccccc3)c(F)c2F)cc2cnc(N[C@@H]3CNC[C@@H](F)C3)nc2n1C1CC(F)(F)C1 [Compound 55, N-(4-(8-(3,3-Difluorocyclobutyl)-2-(((3S,5S)-5-fluoropiperidin-3-yl)amino)-7-oxo-7,8-dihydropyrido[2,3-d]pyrimidin-6-yl)-2,3,6-trifluorophenyl)-1-phenylmethanesulfonamide hydrochloride] |
| 0.3 | CC(C)n1c(=O)c(-c2ccc(NS(=O)(=O)CCC(F)(F)F)nc2)cc2cnc(N[C@H]3CC[C@H](N(C)CCF)CC3)nc21 [Compound 143, 3,3,3-Trifluoro-N-(5-(2-(((1r,4r)-4-((2-fluoroethyl)(methyl)amino)cyclohexyl)amino)-8-isopropyl-7-oxo-7,8-dihydropyrido[2,3-d]pyrimidin-6-yl)pyridin-2-yl)propane-1-sulfonamide] |
| 0.2 | CC(C)n1c(=O)c(-c2ccc(NS(=O)(=O)CCC(F)(F)F)c(F)c2)cc2cnc(NC3CCC4(CC3)CN(C)C4)nc21 [Example 221, 3,3,3-Trifluoro-N-(2-fluoro-4-(8-isopropyl-2-((2-methyl-2-azaspiro[3.5]nonan-7-yl)amino)-7-oxo-7,8-dihydropyrido[2,3-d]pyrimidin-6-yl)phenyl)propane-1-sulfonamide] |
